Experimental data published in PubChem BioAssay AID1963442 (Molecular Pharmacology Branch, DTP, NCI, 2024).
Where “and” joins values, the source holds several entries; their conditions need not be identical. Identical values can stand only once.

Test system: MPNST complex spheroid with HUVEC/MSC, growth, % test/control
Assay: Anticancer human tumor MPNST cell line growth inhibition [Asc];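 further: compounds left on spheroids for seven days before reading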
Details: for viability, T/C: stronger effect = lower value
Method: Multicellular complex tumor spheroid response to apoptosis pathway targeting inhibitors Alrizomadlin, Pelcitoclax, and Dasminapant in combination with a variety of drugs and investigational agents in selected tumor cell lines
The MDM2 inhibitor alrizomadlin, the Bcl-2/Bcl-xL inhibitor pelcitoclax, and the IAPs inhibitor dasminapant were evaluated both individually and in combination with standard of care and investigational anticancer small molecules within a complex spheroid model of solid tumors. . Complex spheroids include a stromal component modeled by human endothelial cells (HUVEC) and fibroblasts modeled by human mesenchymal stem cells (MSCs). The concentration ranges selected for each drug and investigational agent were based upon clinically achievable concentrations if the clinical Cmax of the agent was known.
Compounds. The drugs and investigational agents: alrizomadlin (APG-115; NSC831270), pelcitoclax (APG-1252; NSC835773), dasminapant (APG-1387;NSC834197), TAK-243 (NSC785004), copanlisib (NSC809693), olaparib (NSC753686), talazoparib (NSC767125), cobimetinib (NSC 768068), eltanexor (KPT-8602, NSC 794443), abemaciclib (NSC 768073), sotorasib (NSC818433), adagrasib (NSC 831453), MRTX-1133 (NSC 836407), Iadademestat (ORY1001, NSC 806812), and RMC-4630 (NSC839698), were obtained from the NCI Developmental Therapeutics Program Chemical Repository. The FDA-approved anticancer drug set is available from the Developmental Therapeutics Program at https://dtp.cancer.gov/organization/dscb/obtaining/available plates.htm. […] The stock solutions were prepared in dimethyl sulfoxide (DMSO, Sigma-Aldrich, St. Louis, MO, cat. D2650) at 800-fold the tested concentration and stored at -70 degrees C prior to their use. All drugs and investigational agents were tested over a range starting from a high concentration at or near the clinical Cmax and decreasing in half-log increments. If the clinical Cmax for an agent had not been determined, the highest concentration tested was 10 microM.
The patient-derived cancer (PDC) cell lines include five colon adenocarcinomas: 186277-243-T-J2-PDC, 616215-338-R-J1-PDC, 439559-082-T-J2-PDC, 463943-066-T-J2-PDC, and 519858-162-T-J1-PDC; three pancreatic carcinomas: 323965-272-R-J2-PDC, 521955-158-R6-J3-PDC, and 521955-158-R2-J5-PDC; two uterine sarcomas: 327498-152-R-J2-PDC and 993429-296-R-J1-PDC; two rhabdomyosarcomas: 755483-174-R-J1-PDC and 772245-204-R-J1-PDC; two soft tissue sarcomas: 126254-015-R-J1-PDC and 494315-158-R-J1-PDC; two malignant fibrous histiocytomas: 317291-083-R-J1-PDC and 596521-263-R-J1-PDC; two breast carcinomas: 171881-019-R-J1-PDC and 885512-296-R-J2-PDC; and one ovarian carcinoma: 6556581-035-R-J-PDC were obtained from the NCI PDMR, (https://pdmr.cancer.gov). The established cell lines HSSY-2 synovial sarcoma (RRID:CVCL 8719), SYO-1 synovial sarcoma (RRID:CVCL_7146), MPNST malignant peripheral neural sheath tumor were obtained from the Sloan Kettering Institute. The following established cell lines were purchased from the American Type Culture Collection (ATCC, Manassas, VA), Sor the received from the NCI repository:, PANC-1 pancreatic carcinoma (CRL-1469, RRID:CVCL_0480), OVCAR-5 ovarian carcinoma (RRID:CVCL_1628), OVCAR-8 ovarian carcinoma (RRID:CVCL_1629), , MCF-7 breast carcinoma (CRL-12584, RRID:CVCL_0031), MDA-MB-231 breast carcinoma (CRL-12532, RRID:CVCL_0062), NCI-H1876 small cell lung carcinoma (CRL-5902, RRID:CVCL_1503), NCI-H510A small cell lung carcinoma (HTB-184, RRID:CVCL_1565), NCI-H1417 (CRL-5869, RRID:CVCL_1469), and NCI-H196 small cell lung carcinoma (CRL-5823, RRID:CVCL_1509). Dr. Peter Houghton (Greehey Children's Cancer Research Institute, University of Texas Health Science Center, San Antonio, TX) provided Rh-18 rhabdomyosarcoma (RRID:CVCL_1659). Pooled donor human umbilical vein endothelial cells (HUVEC, Lonza, cat. CC-2519) and human mesenchymal stem cells (hMSC, Lonza, cat. PT-2501) were purchased from Lonza (Walkersville, MD).
Cell Culture. […]

Which results are given for `NC1CCC(NC2CC2c2ccccc2)CC1` (stereo unspecified)?
viability, T/C (compound 0.000316 µM): 78.8% and 74.6% and 64.2%; viability, T/C (compound 0.001 µM): 78.6% and 79.4% and 71.8%; viability, T/C (compound 0.00316 µM): 76.3% and 81% and 80.4%; viability, T/C (compound 0.01 µM): 74% and 88.9% and 68.4%; viability, T/C (compound 0.0316 µM): 83.4% and 76.8% and 64.2%; viability, T/C (compound 0.1 µM): 78.2% and 98.4% and 47.2%; IC50 (curve of compound): > 100 nM and 82.7 nM

With `O=C(c1cc(Cc2n[nH]c(=O)c3ccccc23)ccc1F)N1CCN(C(=O)C2CC2)CC1` as the compound, how does the viability, T/C (compound 0.0316 µM) read?
Its viability, T/C is 89.3% and 114% and 79.2%.

And the viability, T/C (compound 0.1 µM)?
The viability, T/C was 103% and 78.6% and 69.5%.

And the viability, T/C (compound 0.316 µM)?
The viability, T/C was 109% and 60.3% and 96.9%.

What about the viability, T/C (compound 1 µM) of the same compound?
Its viability, T/C is 83.9% and 63.7% and 82.7%.

And the viability, T/C (compound 3.16 µM)?
The viability, T/C was 71.8% and 70.9% and 40.7%.

What about the viability, T/C (compound 10 µM) of the same compound?
The viability, T/C was 77.1% and 48.1% and 34.8%.

And the IC50 (curve of compound)?
The IC50 was > 10000 nM and 2440 nM.

How did the viability, T/C (compound 0.00316 µM) turn out when `O=C(c1ccc(F)c(F)c1Nc1ccc(I)cc1F)N1CC(O)([C@@H]2CCCCN2)C1` was run?
The viability, T/C was 100% and 84.6% and 73.2%.

And the viability, T/C (compound 0.01 µM)?
Its viability, T/C is 60.5% and 110% and 78.5%.

And the viability, T/C (compound 0.0316 µM)?
The viability, T/C was 58.9% and 123% and 126%.

What about the viability, T/C (compound 0.1 µM) of the same compound?
The viability, T/C was 65.1% and 103% and 84.6%.

And the viability, T/C (compound 0.316 µM)?
Its viability, T/C is 67.3% and 72% and 85.4%.

What about the viability, T/C (compound 1 µM) of the same compound?
Its viability, T/C is 13.1% and 29.3% and 32.3%.

And the IC50 (curve of compound)?
The IC50 was 448 nM and 572 nM and 682 nM.

With `O=C(c1cc(Cc2n[nH]c(=O)c3ccccc23)ccc1F)N1CCN(C(=O)C2CC2)CC1` + CCN1C(C(=O)NC23CCC(C(=O)O)(CC2)CC3)C(c2cccc(Cl)c2F)C2(C(=O)Nc3cc(Cl)ccc32)C12CCCCC2 as the compound, how does the IC50 (curve of first compound, second compound 0.03 µM) read?
The IC50 was greater than 10000 nM.

And the IC50 (curve of first compound, second compound 0.0949 µM)?
The IC50 was greater than 10000 nM.

What about the IC50 (curve of first compound, second compound 0.3 µM) of the same compound?
The IC50 was greater than 10000 nM.

And the IC50 (curve of first compound, second compound 0.949 µM)?
The IC50 was greater than 10000 nM.

What about the IC50 (curve of first compound, second compound 3 µM) of the same compound?
Its IC50 is greater than 10000 nM.

And the viability, T/C (second compound 0.03 µM, first compound 0.0316 µM)?
Its viability, T/C is 122%.

What about the viability, T/C (second compound 0.03 µM, first compound 0.1 µM) of the same compound?
The viability, T/C was 113%.

What about the viability, T/C (second compound 0.03 µM, first compound 0.316 µM) of the same compound?
Its viability, T/C is 101%.

And the viability, T/C (second compound 0.03 µM, first compound 1 µM)?
The viability, T/C was 80.6%.

What about the viability, T/C (second compound 0.03 µM, first compound 3.16 µM) of the same compound?
Its viability, T/C is 65.8%.

And the viability, T/C (second compound 0.03 µM, first compound 10 µM)?
The viability, T/C was 50.1%.

And the viability, T/C (second compound 0.0949 µM, first compound 0.0316 µM)?
The viability, T/C was 141%.

What about the viability, T/C (second compound 0.0949 µM, first compound 0.1 µM) of the same compound?
Its viability, T/C is 115%.

And the viability, T/C (second compound 0.0949 µM, first compound 0.316 µM)?
The viability, T/C was 121%.

And the viability, T/C (second compound 0.0949 µM, first compound 1 µM)?
The viability, T/C was 106%.

What about the viability, T/C (second compound 0.0949 µM, first compound 3.16 µM) of the same compound?
Its viability, T/C is 97.9%.

And the viability, T/C (second compound 0.0949 µM, first compound 10 µM)?
The viability, T/C was 61.5%.

What about the viability, T/C (second compound 0.3 µM, first compound 0.0316 µM) of the same compound?
Its viability, T/C is 122%.

What about the viability, T/C (second compound 0.3 µM, first compound 0.1 µM) of the same compound?
Its viability, T/C is 115%.

What about the viability, T/C (second compound 0.3 µM, first compound 0.316 µM) of the same compound?
The viability, T/C was 117%.

What about the viability, T/C (second compound 0.3 µM, first compound 1 µM) of the same compound?
The viability, T/C was 93.1%.

What about the viability, T/C (second compound 0.3 µM, first compound 3.16 µM) of the same compound?
The viability, T/C was 100%.

What about the viability, T/C (second compound 0.3 µM, first compound 10 µM) of the same compound?
The viability, T/C was 71.4%.

What about the viability, T/C (second compound 0.949 µM, first compound 0.0316 µM) of the same compound?
The viability, T/C was 111%.

And the viability, T/C (second compound 0.949 µM, first compound 0.1 µM)?
The viability, T/C was 113%.

And the viability, T/C (second compound 0.949 µM, first compound 0.316 µM)?
The viability, T/C was 118%.

What about the viability, T/C (second compound 0.949 µM, first compound 1 µM) of the same compound?
Its viability, T/C is 100%.

What about the viability, T/C (second compound 0.949 µM, first compound 3.16 µM) of the same compound?
The viability, T/C was 100%.

What about the viability, T/C (second compound 0.949 µM, first compound 10 µM) of the same compound?
The viability, T/C was 78.2%.

What about the viability, T/C (second compound 3 µM, first compound 0.0316 µM) of the same compound?
Its viability, T/C is 105%.

And the viability, T/C (second compound 3 µM, first compound 0.1 µM)?
The viability, T/C was 107%.

And the viability, T/C (second compound 3 µM, first compound 0.316 µM)?
Its viability, T/C is 116%.

And the viability, T/C (second compound 3 µM, first compound 1 µM)?
The viability, T/C was 90.9%.

And the viability, T/C (second compound 3 µM, first compound 3.16 µM)?
Its viability, T/C is 88.8%.

And the viability, T/C (second compound 3 µM, first compound 10 µM)?
The viability, T/C was 72.2%.
